Results on eleven compounds are retold here after patent US10611740B2, “Aryl dihydro-2H-benzo[b][1,4]oxazine sulfonamide and related compounds for use as agonists of RORγ and the treatment of disease” (Lycera Corporation, priority 2015, dated 2020).

What is called EC50 is the concentration needed to bring the measured effect to its halfway point. Low values mean a more potent agent, high ones a less potent agent.

One experiment deals with T1, Gal4-RORγ-LBD (Homo sapiens, UniProt P51449).
T1 construct: expressed in transfected cells; host or cells: HEK-293 cells (pcDNA3.1neo plasmid)
T1 sequence (P51449 269-508 limits assumed): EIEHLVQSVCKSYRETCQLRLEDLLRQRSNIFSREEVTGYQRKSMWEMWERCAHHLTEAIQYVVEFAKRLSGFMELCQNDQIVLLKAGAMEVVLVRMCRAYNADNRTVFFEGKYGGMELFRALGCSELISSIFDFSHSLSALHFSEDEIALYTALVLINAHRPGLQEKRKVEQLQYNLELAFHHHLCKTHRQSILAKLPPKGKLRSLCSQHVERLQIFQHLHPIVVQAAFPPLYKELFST
Kind of experiment: Gal4-RORγ Luciferase Reporter Assay in HEK-293T Cells. The class given is cell-based. The following applies: HEK-293 cells. In short, it runs like this: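 HEK-293 cells were transiently co-transfected with Gal4-RORγ-LBD and pGL4.31 Gal4-luciferase, with ursolic acid added at 2 μM final. Compounds were incubated overnight at 37° C. in 0.2% DMSO and luminescence read with One-Glo. Max Response is the upper plateau of a 4-parameter logistic fit, with signal lacking ursolic acid or compound set to 100.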
(Reporter assays use an easily measured gene product as a stand-in for the process of interest.)

The target in the next experiment is T2, RORγ-LBD (Homo sapiens, UniProt P51449).
T2 construct: made in house; host or cells: SF9 cells (baculovirus)
T2 sequence (P51449 269-508 limits assumed): T1 sequence (P51449 269-508 limits assumed)
As to the kind of experiment: RORγ-Ligand Binding Domain (LBD) TR-FRET Assay.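 As to TR-FRET Assay Max Response: 665/615 nm ratio relative to signal without ursolic acid or compound set at 100.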 The class given is biochemical. The method in brief: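 Compounds, diluted in DMSO and then in assay buffer (1% DMSO final), were combined with His-tagged RORγ-LBD lysate at roughly 3 nM final and a 200 nM biotinylated SRC1 LXXLL peptide. Ursolic acid was included at 2 μM final. Coactivator recruitment was detected by TR-FRET.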
For orientation: Time-resolved FRET reads energy transfer from a long-lived donor to a nearby acceptor.

[1] abbreviates: luciferase reporter, with 2 μM ursolic acid.

As for `CC(=O)N[C@H]1C[C@](C[C@H]2CN(S(=O)(=O)c3cccc(C(F)(F)F)c3)c3cc(-c4cc(F)ccc4F)ccc3O2)(C(=O)O)C1` [Compound 89B, (1r,3S)-3-acetamido-1-(((S)-6-(2,5-difluorophenyl)-4-((3-(trifluoro-methyl)phenyl)sulfonyl)-3,4-dihydro-2H-benzo[b][1,4]oxazin-2-yl)methyl)cyclobutane-1-carboxylic acid], at Gal4-RORγ-LBD (2 μM ursolic acid), the concentration for a half-maximal effect (EC50) was in the range of 500 to 5000 nM and the “Gal4-RORγ Assay Max Response” value was “** (The symbol “**” indicates a value in the range of greater than 90 to 150)”. Further, at RORγ-LBD, the concentration giving a half-maximal response (EC50) is under 500 nM and the “TR-FRET Assay Max Response” value is “** (The symbol “**” indicates a value in the range of greater than 90 to 150)”.
As for `CC(C)(CO)C(=O)NC[C@H]1CN(S(=O)(=O)c2cccc(C(F)(F)F)c2)c2cc(-c3cccc(C(F)(F)F)n3)ccc2O1` [Compound 30BI, (S)-3-hydroxy-2,2-dimethyl-N-((4-((3-(trifluoromethyl)-phenyl)sulfonyl)-6-(6-(trifluoromethyl)pyridin-2-yl)-3,4-dihydro-2H-benzo[b][1,4]-oxazin-2-yl)methyl)-propanamide], on Gal4-RORγ-LBD (setting [1]), the EC50 fell in the range of 500 to 5000 nM and the “Gal4-RORγ Assay Max Response” value is given as “* (The symbol “*” indicates a value in the range of 25 to 90)”. Besides, on RORγ-LBD, the EC50 is under 500 nM and the “TR-FRET Assay Max Response” value was “*** (The symbol “***” indicates a value in the range of greater than 150 to 200)”.
In the same order, the values of `CC(C)(O)C(=O)NCC[C@H]1CN(S(=O)(=O)c2cccc(C(F)(F)F)c2)c2cc(-c3cncc(C(F)(F)F)c3)ccc2O1` [Compound 30C, (S)-2-hydroxy-2-methyl-N-(2-(4-((3-(trifluoromethyl)-phenyl)sulfonyl)-6-(5-(trifluoromethyl)pyridin-3-yl)-3,4-dihydro-2H-benzo[b][1,4]oxazin-2-yl)ethyl)propanamide] are under 500 nM, “* (The symbol “*” indicates a value in the range of 25 to 90)”, under 500 nM and “**** (The symbol “****” indicates a value greater than 200)”.
On to `O=c1[nH]nc(CC[C@H]2CN(S(=O)(=O)c3cccc(C(F)(F)F)c3)c3cc(-c4cc(F)cc(F)c4Cl)ccc3O2)o1` [Compound 28I, (S)-5-(2-(6-(2-chloro-3,5-difluorophenyl)-4-((3-(trifluoromethyl)phenyl)sulfonyl)-3,4-dihydro-2H-benzo[b][1,4]oxazin-2-yl)ethyl)-1,3,4-oxadiazol-2(3H)-one], for which, at Gal4-RORγ-LBD (setting [1]), the EC50 was under 500 nM and the “Gal4-RORγ Assay Max Response” value is given as “** (The symbol “**” indicates a value in the range of greater than 90 to 150)”. For the same compound, at RORγ-LBD, the EC50 was under 500 nM and the “TR-FRET Assay Max Response” value was “**** (The symbol “****” indicates a value greater than 200)”.
Turning to `C[C@@H](C[C@H]1CN(S(=O)(=O)c2cccc(C(F)(F)F)c2)c2cc(-c3cc(F)cc(F)c3Cl)ccc2O1)C(=O)O` [Compound 46C, (S)-3-((S)-6-(2-chloro-3,5-difluorophenyl)-4-((3-(trifluoro-methyl)phenyl)sulfonyl)-3,4-dihydro-2H-benzo[b][1,4]oxazin-2-yl)-2-methylpropanoic acid], on Gal4-RORγ-LBD (setting [1]), the half-maximal effective concentration (EC50) was under 500 nM and the “Gal4-RORγ Assay Max Response” value is on record as “** (The symbol “**” indicates a value in the range of greater than 90 to 150)”. Also, on RORγ-LBD, the EC50 was under 500 nM and the “TR-FRET Assay Max Response” value is “*** (The symbol “***” indicates a value in the range of greater than 150 to 200)”.
For `CC(C)(C(=O)NC[C@H]1CN(S(=O)(=O)c2cccc(C(F)(F)F)c2)c2cc(-c3cc(F)cc(F)c3Cl)ccc2O1)C(F)(F)F` [Compound 30CL, (S)-N-((6-(2-chloro-3,5-difluoro-phenyl)-4-((3-(trifluoromethyl)-phenyl)sulfonyl)-3,4-dihydro-2H-benzo[b][1,4]oxazin-2-yl)methyl)-3,3,3-trifluoro-2,2-dimethylpropanamide], on Gal4-RORγ-LBD (2 μM ursolic acid), the EC50 lay in the range of 500 to 5000 nM and the “Gal4-RORγ Assay Max Response” value is given as “* (The symbol “*” indicates a value in the range of 25 to 90)”. Also, on RORγ-LBD, the concentration giving a half-maximal response (EC50) was in the range of 500 to 5000 nM and the “TR-FRET Assay Max Response” value was “** (The symbol “**” indicates a value in the range of greater than 90 to 150)”.
`CC(C)(C#N)C(=O)NC[C@H]1CN(S(=O)(=O)c2cccc(C(F)(F)F)c2)c2cc(-c3cc(F)ccc3F)ccc2O1` [Compound 30AQ, (S)-2-cyano-N-((6-(2,5-difluoro-phenyl)-4-((3-(trifluoromethyl)-phenyl)sulfonyl)-3,4-dihydro-2H-benzo[b][1,4]oxazin-2-yl)methyl)-2-methylpropanamide]: on Gal4-RORγ-LBD (setting [1]), the EC50 is under 500 nM and the “Gal4-RORγ Assay Max Response” value is listed as “* (The symbol “*” indicates a value in the range of 25 to 90)”. At RORγ-LBD, the concentration giving a half-maximal response (EC50) is under 500 nM and the “TR-FRET Assay Max Response” value is listed as “*** (The symbol “***” indicates a value in the range of greater than 150 to 200)”.
On to `CCOc1nn(CC)cc1S(=O)(=O)N1C[C@H](CCC(=O)O)Oc2ccc(-c3cccc(Cl)c3)cc21` [Compound 6A, (S)-3-(6-(3-chlorophenyl)-4-((3-ethoxy-1-ethyl-1H-pyrazol-4-yl)sulfonyl)-3,4-dihydro-2H-benzo[b][1,4]oxazin-2-yl)propanoic acid], for which, at Gal4-RORγ-LBD (setting [1]), the concentration for a half-maximal effect (EC50) lay in the range of 500 to 5000 nM and the “Gal4-RORγ Assay Max Response” value is reported as “* (The symbol “*” indicates a value in the range of 25 to 90)”. Moreover, at RORγ-LBD, the half-maximal effective concentration (EC50) is under 500 nM and the “TR-FRET Assay Max Response” value is listed as “*** (The symbol “***” indicates a value in the range of greater than 150 to 200)”.
The matching figures for `O=C(O)C1CCN(C(=O)CC[C@H]2CN(S(=O)(=O)c3cccc(C(F)(F)F)c3)c3cc(-c4cccc(C(F)(F)F)n4)ccc3O2)CC1` [Compound 23F, (S)-1-(3-(4-((3-(trifluoromethyl)-phenyl)sulfonyl)-6-(6-(trifluoro-methyl)pyridin-2-yl)-3,4-dihydro-2H-benzo[b][1,4]oxazin-2-yl)propanoyl)piperidine-4-carboxylic acid]: under 500 nM, “** (The symbol “**” indicates a value in the range of greater than 90 to 150)”, under 500 nM and “**** (The symbol “****” indicates a value greater than 200)”.
The matching figures for `O=C(O)CC[C@H]1CN(S(=O)(=O)c2cccc(C(F)(F)F)c2)c2cc(-c3nc(C(F)(F)F)cs3)ccc2O1` [Compound 4G, (S)-3-(4-((3-(trifluoromethyl)phenyl)sulfonyl)-6-(4-(trifluoromethyl)thiazol-2-yl)-3,4-dihydro-2H-benzo[b][1,4]oxazin-2-yl)propanoic acid]: 500 to 5000 nM, “** (The symbol “**” indicates a value in the range of greater than 90 to 150)”, under 500 nM and “**** (The symbol “****” indicates a value greater than 200)”.
In the case of `CC(C)(C[C@H]1CN(S(=O)(=O)c2cccc(C(F)(F)F)c2)c2cc(-c3cccc(C(F)F)n3)ccc2O1)C(=O)O` [Compound 32AK, (S)-3-(6-(6-(difluoromethyl)-pyridin-2-yl)-4-((3-(trifluoro-methyl)phenyl)sulfonyl)-3,4-dihydro-2H-benzo[b][1,4]oxazin-2-yl)-2,2-dimethylpropanoic acid], on Gal4-RORγ-LBD (2 μM ursolic acid), the 50% effective concentration (EC50) is under 500 nM and the “Gal4-RORγ Assay Max Response” value is “* (The symbol “*” indicates a value in the range of 25 to 90)”. On RORγ-LBD, the EC50 is under 500 nM and the “TR-FRET Assay Max Response” value is on record as “** (The symbol “**” indicates a value in the range of greater than 90 to 150)”.
